# Experimental data taken from paper PMC5493200 (ACS infectious diseases, 2016).
# How the values were obtained:
# M. tuberculosis H37Rv = assay: microbe, parasite or virus in culture; type: cell-based, Mycobacterium tuberculosis; conditions: Tables 1-4 and text; […]
# [1] = system: M. tuberculosis H37Rv Rv1258c knockout (KO); assay: microbe, parasite or virus in culture; type: cell-based; conditions: Tables 1-4 and text; 7 days, 7H9 broth
# [2] = target: Purified 70S M. smegmatis bacterial ribosomes (Mycolicibacterium smegmatis, UniProt A0QSG6); assay: Ribosomal translation inhibition; type: biochemical; conditions: for Ribosome IC50: inhibits luciferase activity by 50%
# Purified 70S M. smegmatis bacterial ribosomes, sequence (A0QSG6 whole entry): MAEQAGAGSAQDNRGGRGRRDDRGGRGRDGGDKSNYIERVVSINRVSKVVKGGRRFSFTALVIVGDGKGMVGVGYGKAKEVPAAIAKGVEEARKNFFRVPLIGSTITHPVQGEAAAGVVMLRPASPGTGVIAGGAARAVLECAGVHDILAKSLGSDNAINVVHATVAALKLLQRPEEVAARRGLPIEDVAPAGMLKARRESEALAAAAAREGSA
# Rv1258c efflux pump = conditions: for Efflux Ratio: H37Rv MIC / Rv1258c KO MIC
Structure (SMILES),H37Rv MIC (M. tuberculosis H37Rv) [µg/mL],Rv1258c KO MIC [1] [µg/mL],Ribosome IC50 [2] [µg/mL],Efflux Ratio (Rv1258c efflux pump),Fold change of MIC between H37Rv and Rv1258c KO (efflux) (Rv1258c efflux pump) [fold],IC50 ([2]; as printed in modeling section) [µM],Fold weaker binding than 1 ([2]; relative to 1) [fold]
"CNC1C(O)C(NC)C2OC3(O)C(OC(C)C[C@H]3NC(=O)Cc3cccnc3)OC2C1O.Cl.Cl.Cl (stereo partly drawn) [Compound 3, 3′-Dihydro-3′-deoxy-3′(R)-(pyridin-3yl)acetylamino spectinomycin trihydrochloride]",200,6.3,–,–,–,–,–
"CNC1C(O)C(NC)C2OC3(O)C(OC(C)C[C@H]3NC(=O)Cc3ccncc3)OC2C1O.Cl.Cl.Cl (stereo partly drawn) [Compound 4, 3′-Dihydro-3′-deoxy-3′(R)-(pyridin-4yl)acetylamino spectinomycin trihydrochloride]",200,12.5,–,–,–,–,–
"Br.Br.Br.CNC1C(O)C(NC)C2OC3(O)C(NC(=O)Cc4ccccn4)CC(C)OC3OC2C1O [Compound 5, 3′-Dihydro-3′-deoxy-3′(S)-(pyridin-2-yl)acetylamino spectinomycin Trihydrobromide]",–,>200,42.23,–,–,–,–
"CNC1C(O)C(NC)C2OC3(O)C(OC(C)C[C@H]3NCCc3ccccc3)OC2C1O.Cl.Cl.Cl (stereo partly drawn) [Compound 6, 3′-Dihydro-3′-deoxy-4(R)-2-phenylethylamino spectinomycin trihydrochloride]",200,–,–,–,–,–,–
"CNC1C(O)C(NC)C2OC3(O)C(OC(C)C[C@H]3NC(=O)Oc3ccccc3)OC2C1O.Cl.Cl (stereo partly drawn) [Compound 7, 3′-Dihydro-3′-deoxy-3′(R)-phenyloxycarbonylamino spectinomycin dihydrochloride]",>200,>200,16.62,–,–,–,–
"Br.Br.Br.CNC1C(O)C(NC)C2OC3(O)C(OC(C)C[C@H]3NC(=O)Nc3ccccc3)OC2C1O (stereo partly drawn) [Compound 8, 3′-Dihydro-3′-deoxy-3′(R)-phenylaminocarbonylamino spectinomycin trihydrobromide]",–,25,3.77,>8,–,–,–
"Br.Br.CNC1C(O)C(NC)C2OC3(O)C(NS(=O)(=O)Cc4ccccc4)CC(C)OC3OC2C1O [Compound 9, 3′-Dihydro-3′-deoxy-3′(R)-benzylsulfonylamino spectinomycin dihydrobromide]",>200,12.5,10.97,>16,–,–,–
"CNC1C(O)C(NC)C2OC3(O)C(NC(=O)Nc4ccccn4)CC(C)OC3OC2C1O.Cl.Cl [Compound 10, 3′-Dihydro-3′-deoxy-3′(R)-(pyridin-2-yl)aminocarbonylamino spectinomycin dihydrochloride]",12.5,3.1,2.24,4,–,–,–
"CNC1C(O)C(NC)C2OC3(O)C(NC(=O)c4ccccn4)CC(C)OC3OC2C1O.Cl.Cl.Cl [Compound 11, 3′-Dihydro-3′-deoxy-3′(R)-pyridin-2-carboxylicamino spectinomycin trihydrochloride]",–,>200,–,–,–,–,–
"Br.Br.Br.CNC1C(O)C(NC)C2OC3(O)C(NC(=O)CCc4ccccn4)CC(C)OC3OC2C1O [Compound 12, 3′-Dihydro-3′-deoxy-3′(R)-(pyridin-2-yl)propanoylamino spectinomycin trihydrobromide]",50,6.3,3.80,8,8,–,–
"CN[C@@H]1[C@H](O)[C@H](NC)[C@H]2O[C@]3(O)[C@H](O[C@@H]2[C@H]1O)O[C@H](C)C[C@H]3NC(=O)Cc1ncccn1.Cl.Cl [Compound 13, 3′-Dihydro-3′-deoxy-3′(R)-(pyrimidin-2yl)acetylamino spectinomycin dihydrochloride]",–,>200,45.50,–,–,45.5,39
"Br.Br.Br.CNC1C(O)C(NC)C2OC3(O)C(NC(=O)Cc4cccnn4)CC(C)OC3OC2C1O [Compound 14, 3′-Dihydro-3′-deoxy-3′(R)-(pyridazin-3-yl) acetylamino spectinomycin trihydrobromide]",–,12.5,–,2,–,–,–
"Br.Br.Br.CNC1C(O)C(NC)C2OC3(O)C(OC(C)C[C@H]3NC(=O)Cc3cnccn3)OC2C1O (stereo partly drawn) [Compound 15, 3′-Dihydro-3′-deoxy-3′(R)-(pyrazin-2-yl)acetylamino spectinomycin trihydrobromide]",–,25,–,1,–,–,–
"Br.Br.Br.CNC1C(O)C(NC)C2OC3(O)C(OC(C)C[C@H]3NC(=O)Cc3ccncn3)OC2C1O (stereo partly drawn) [Compound 16, 3′-Dihydro-3′-deoxy-3′(R)-(pyrimidin-4-yl)acetylamino spectinomycin trihydrobromide]",–,25,–,0.5,–,–,–
"Br.Br.Br.CNC1C(O)C(NC)C2OC3(O)C(NC(=O)Cc4csc(N)n4)CC(C)OC3OC2C1O [Compound 18, 3′-Dihydro-3′-deoxy-3′(R)-(2-aminothiazol-4-yl)acetylamino spectinomycin trihydrobromide]",–,6.3,0.62,1,–,–,–
"Br.Br.Br.CNC1C(O)C(NC)C2OC3(O)C(NC(=O)Cc4nccs4)CC(C)OC3OC2C1O [Compound 19, 3′-Dihydro-3′-deoxy-3′(R)-(thiazol-2-yl) acetylamino spectinomycin trihydrobromide]",–,6.3,0.72,1,–,–,–
"Br.Br.Br.CNC1C(O)C(NC)C2OC3(O)C(NC(=O)Cc4c[nH]cn4)CC(C)OC3OC2C1O [Compound 20, 3′-Dihydro-3′-deoxy-3′(R)-(1H-imidazol-4-yl)acetylamino spectinomycin trihydrobromide]",25,12.5,1.10,2,–,–,–
"Br.Br.Br.CNC1C(O)C(NC)C2OC3(O)C(NC(=O)Cn4cccn4)CC(C)OC3OC2C1O [Compound 22, 3′-Dihydro-3′-deoxy-3′(R)-(1H-pyrazol-1-yl)acetylamino spectinomycin trihydrobroride]",6.3,6.3,0.42,1,–,–,–
"Br.Br.Br.CNC1C(O)C(NC)C2OC3(O)C(OC(C)C[C@H]3NC(=O)Cn3ccnc3)OC2C1O (stereo partly drawn) [Compound 23, 3′-Dihydro-3′-deoxy-3′(R)-(1H-imidazol-1-yl)acetylamino spectinomycin trihydrobromide]",100,12.5,1.51,8,8,–,–
"Br.Br.Br.CNC1C(O)C(NC)C2OC3(O)C(NC(=O)Cc4nc5ccccc5o4)CC(C)OC3OC2C1O [Compound 24, 3′-Dihydro-3′-deoxy-3′(R)-(benzo[d]oxazol-2-yl)acetylamino spectinomycin trihydrobroride]",6.3,3.1,0.61,2,–,–,–
"Br.Br.Br.CNC1C(O)C(NC)C2OC3(O)C(OC(C)C[C@H]3NC(=O)Cc3nc4ccccc4n3C)OC2C1O (stereo partly drawn) [Compound 26, 3′-Dihydro-3′-deoxy-3′(R)-(1-methyl-1H-benzo[d]imidazol-2-yl)acetylamino spectinomycin trihydrobroride]",6.3,3.1,0.26,2,–,–,–
"CNC1C(O)C(NC)C2OC3(O)C(NC(=O)Cc4cc5ccccc5[nH]4)CC(C)OC3OC2C1O [Compound 28, 3′-Dihydro-3′-deoxy-3′(R)-(1H-indol-2-yl)acetylamino spectinomycin]",25,0.8,0.77,32,32,–,–
"Br.Br.Br.CNC1C(O)C(NC)C2OC3(O)C(NC(=O)Cc4ncccc4C)CC(C)OC3OC2C1O [Compound 29, 3′-Dihydro-3′-deoxy-3′(R)-(3-methylpyridin-2-yl)acetylamino spectinomycin trihydrobromide]",25,6.3,1.00,4,–,–,–
"Br.Br.Br.CNC1C(O)C(NC)C2OC3(O)C(NC(=O)Cc4cc(C)ccn4)CC(C)OC3OC2C1O [Compound 30, 3′-Dihydro-3′-deoxy-3′(R)-(4-methylpyridin-2-yl)acetylamino spectinomycin trihydrobromide]",3.1,6.3,0.47,0.5,–,–,–
"Br.Br.Br.CNC1C(O)C(NC)C2OC3(O)C(NC(=O)Cc4ccc(C)cn4)CC(C)OC3OC2C1O [Compound 31, 3′-Dihydro-3′-deoxy-3′(R)-(5-methylpyridin-2-yl)acetylamino spectinomycin trihydrobromide]",3.1,3.1,0.54,–,–,–,–
"Br.Br.Br.CNC1C(O)C(NC)C2OC3(O)C(NC(=O)Cc4ccc(N)cn4)CC(C)OC3OC2C1O [Compound 37, 3′-Dihydro-3′-deoxy-3′(R)-(5-aminopyridin-2-yl)acetylamino spectinomycin trihydrobromide]",6.3,6.3,0.30,–,–,–,–
"CNC1C(O)C(NC)C2OC3(O)C(OC(C)C[C@H]3NC(=O)Cc3ccc(OC(F)F)cn3)OC2C1O.Cl.Cl.Cl (stereo partly drawn) [Compound 40, 3′-Dihydro-3′-deoxy-3′(R)-(5-(difluoromethoxy)pyridin-2-yl)acetylamino spectinomycin trihydrochloride]",–,–,–,2,–,–,–
